# Patent US20240246977A1, “DEGRADATION OF BRUTON'S TYROSINE KINASE (BTK) BY CONJUGATION OF BTK INHIBITORS WITH E3 LIGASE LIGAND AND METHOD OF USE” (BeiGene Switzerland GmbH, priority 2021, published 2024)
# pIC50: −log10 of the molar value.
# Columns and labels:
# BTK = BTK (Homo sapiens, UniProt Q06187); assay: BTK cell degradation in TMD-8 cells, HTRF assay; assay type: cell-based; parameters: endogenous in cells; host or cells: TMD-8 cells; details: 6 h treatment, IC50 (DC50) of BTK degradation
# BTK, sequence (Q06187 whole entry): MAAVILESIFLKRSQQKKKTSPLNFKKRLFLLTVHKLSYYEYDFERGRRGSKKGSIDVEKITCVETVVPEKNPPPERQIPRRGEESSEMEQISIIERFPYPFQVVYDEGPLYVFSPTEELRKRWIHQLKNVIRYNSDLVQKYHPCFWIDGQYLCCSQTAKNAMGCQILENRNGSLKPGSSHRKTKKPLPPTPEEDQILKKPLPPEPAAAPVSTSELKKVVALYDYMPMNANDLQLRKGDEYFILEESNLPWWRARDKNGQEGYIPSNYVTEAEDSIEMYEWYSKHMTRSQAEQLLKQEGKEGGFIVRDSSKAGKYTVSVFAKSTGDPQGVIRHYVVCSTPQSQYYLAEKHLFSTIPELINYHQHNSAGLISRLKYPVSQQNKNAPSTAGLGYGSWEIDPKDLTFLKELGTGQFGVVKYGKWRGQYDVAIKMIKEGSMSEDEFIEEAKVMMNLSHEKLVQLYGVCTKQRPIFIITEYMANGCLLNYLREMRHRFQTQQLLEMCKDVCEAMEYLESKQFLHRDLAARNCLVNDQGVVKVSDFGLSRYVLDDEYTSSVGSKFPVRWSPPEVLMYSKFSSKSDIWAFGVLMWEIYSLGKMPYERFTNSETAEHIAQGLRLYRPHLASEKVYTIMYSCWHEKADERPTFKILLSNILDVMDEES
# In short: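 TMD-8 cells treated 6 h with 8-dose series (6-fold dilutions, 0.2% DMSO final), then lysed and BTK quantified by HTRF (337/665/620 nm) after overnight antibody incubation at room temperature. Degradation normalized to DMSO high and low controls; DC50 and Dmax from four-parameter fit.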
# HEK-293 cells = assay: HEK-293 cytotoxicity detection (CellTiter-Glo); assay type: cell-based; details: Homo sapiens, 72 h, 72 h incubation, CellTiter-Glo luminescence, read-out: HEK293
# In short: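 HEK-293 cells exposed 72 h to 8 compounds doses (4-fold dilutions, top stock 5 mM at 500×) in 0.2% DMSO. Viability by CellTiter-Glo luminescence; inhibition normalised to DMSO high control and low control, IC50 from four-parameter curve fit.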
DC50 (BTK) [nM],SMILES,pIC50 (HEK-293 cells)
3.4,"COc1ccc(Cl)cc1C(=O)NCc1ccc(-c2nn3c(c2C(N)=O)Nc2ccc(N4CCN(CC5CCN(c6ccc(N7CCC(=O)NC7=O)cc6)CC5)CC4)cc2CC3)cc1C [Example C6, 2-(4-((5-chloro-2-methoxybenzamido)methyl)-3-methylphenyl)-7-(4-((1-(4-(2,4-dioxotetrahydropyrimidin-1(2H)-yl)phenyl)piperidin-4-yl)methyl)piperazin-1-yl)-9,10-dihydro-4H-benzo[d]pyrazolo[1,5-a][1,3]diazepine-3-carboxamide]",< 5.00
22.7,"Cc1cc(-c2nn3c(c2C(N)=O)Nc2ccc(N4CCN(CC5CCN(c6ccc(N7CCC(=O)NC7=O)cc6)CC5)CC4)cc2CC3)ccc1CNC(=O)c1noc(C(C)(C)C)n1 [Example C7, 5-(tert-butyl)-N-(4-(3-carbamoyl-7-(4-((1-(4-(2,4-dioxotetrahydropyrimidin-1(2H)-yl)phenyl)piperidin-4-yl)methyl)piperazin-1-yl)-9,10-dihydro-4H-benzo[d]pyrazolo[1,5-a][1,3]diazepin-2-yl)-2-methylbenzyl)-1,2,4-oxadiazole-3-carboxamide]",< 5.00
15.6,"Cc1cc(-c2nn3c(c2C(N)=O)Nc2ccc(N4CCN(CC5CCN(c6ccc(N7CCC(=O)NC7=O)cc6)CC5)CC4)cc2CC3)ccc1CNC(=O)c1nc(C(C)(C)C)no1 [Example C8, 3-(tert-butyl)-N-(4-(3-carbamoyl-7-(4-((1-(4-(2,4-dioxotetrahydropyrimidin-1(2H)-yl)phenyl)piperidin-4-yl)methyl)piperazin-1-yl)-9,10-dihydro-4H-benzo[d]pyrazolo[1,5-a][1,3]diazepin-2-yl)-2-methylbenzyl)-1,2,4-oxadiazole-5-carboxamide]",< 5.00
54.2,"Cc1cc(-c2nn3c(c2C(N)=O)Nc2ccc(N4CCN(CC5CCN(c6ccc(N7CCC(=O)NC7=O)cc6)CC5)CC4)cc2CC3)ccc1CNC(=O)c1ccn(C(C)(C)C)n1 [Example C9, 2-(4-((1-(tert-butyl)-1H-pyrazole-3-carboxamido)methyl)-3-methylphenyl)-7-(4-((1-(4-(2,4-dioxotetrahydropyrimidin-1(2H)-yl)phenyl)piperidin-4-yl)methyl)piperazin-1-yl)-9,10-dihydro-4H-benzo[d]pyrazolo[1,5-a][1,3]diazepine-3-carboxamide]",< 5.00
10.1,"COc1ccc2ccccc2c1C(=O)NCc1ccc(-c2nn3c(c2C(N)=O)Nc2ccc(N4CCN(CC5CCN(c6ccc(N7CCC(=O)NC7=O)cc6)CC5)CC4)cc2CC3)cc1C [Example C10, 7-(4-((1-(4-(2,4-dioxotetrahydropyrimidin-1(2H)-yl)phenyl)piperidin-4-yl)methyl)piperazin-1-yl)-2-(4-((2-methoxy-1-naphthamido)methyl)-3-methylphenyl)-9,10-dihydro-4H-benzo[d]pyrazolo[1,5-a][1,3]diazepine-3-carboxamide]",< 5.00
3.36,"COc1ccc(C(F)(F)F)cc1C(=O)NCc1ccc(-c2nn3c(c2C(N)=O)Nc2ccc(N4CCN(CC5CCN(c6ccc(N7CCC(=O)NC7=O)cc6)CC5)CC4)cc2CC3)cc1C [Example C11, 7-(4-((1-(4-(2,4-dioxotetrahydropyrimidin-1(2H)-yl)phenyl)piperidin-4-yl)methyl)piperazin-1-yl)-2-(4-((2-methoxy-5-(trifluoromethyl)benzamido)methyl)-3-methylphenyl)-9,10-dihydro-4H-benzo[d]pyrazolo[1,5-a][1,3]diazepine-3-carboxamide]",< 5.00
1.82,"CC(C)(C)c1noc(C(=O)NCc2ccc(-c3nn4c(c3C(N)=O)Nc3ccc(N5CCN(CC6CCN(c7ccc(N8CCC(=O)NC8=O)cc7)CC6)CC5)cc3CC4)cc2)n1 [Example C12, 3-(tert-butyl)-N-(4-(3-carbamoyl-7-(4-((1-(4-(2,4-dioxotetrahydropyrimidin-1(2H)-yl)phenyl)piperidin-4-yl)methyl)piperazin-1-yl)-9,10-dihydro-4H-benzo[d]pyrazolo[1,5-a][1,3]diazepin-2-yl)benzyl)-1,2,4-oxadiazole-5-carboxamide]",< 5.00
11.6,"COc1ccc2ccccc2c1C(=O)N[C@H](C)c1ccc(-c2nn3c(c2C(N)=O)Nc2ccc(N4CCN(CC5CCN(c6ccc(N7CCC(=O)NC7=O)cc6)CC5)CC4)cc2CC3)cc1 [Example C13, (R)-7-(4-((1-(4-(2,4-dioxotetrahydropyrimidin-1(2H)-yl)phenyl)piperidin-4-yl)methyl)piperazin-1-yl)-2-(4-(1-(2-methoxy-1-naphthamido)ethyl)phenyl)-9,10-dihydro-4H-benzo[d]pyrazolo[1,5-a][1,3]diazepine-3-carboxamide]",< 5.00
2.76,"COc1ccccc1C(=O)N[C@H](C)c1ccc(-c2nn3c(c2C(N)=O)Nc2ccc(N4CCN(CC5CCN(c6ccc(N7CCC(=O)NC7=O)cc6)CC5)CC4)cc2CC3)cc1 [Example C14, (R)-7-(4-((1-(4-(2,4-dioxotetrahydropyrimidin-1(2H)-yl)phenyl)piperidin-4-yl)methyl)piperazin-1-yl)-2-(4-(1-(2-methoxybenzamido)ethyl)phenyl)-9,10-dihydro-4H-benzo[d]pyrazolo[1,5-a][1,3]diazepine-3-carboxamide]",< 5.00
14.6,"CC(Nc1cc(C(F)(F)F)ccn1)c1ccc(-c2nn3c(c2C(N)=O)Nc2ccc(N4CCN(CC5CCN(c6ccc(N7CCC(=O)NC7=O)cc6)CC5)CC4)cc2CC3)cc1 (centres unmarked) [Example C15, 7-(4-((1-(4-(2,4-dioxotetrahydropyrimidin-1(2H)-yl)phenyl)piperidin-4-yl)methyl)piperazin-1-yl)-2-(4-(1-((4-(trifluoromethyl)pyridin-2-yl)amino)ethyl)phenyl)-9,10-dihydro-4H-benzo[d]pyrazolo[1,5-a][1,3]diazepine-3-carboxamide]",5.05
60.1,"NC(=O)c1c(-c2ccc(C3(Nc4cc(C(F)(F)F)ccn4)CC3)cc2)nn2c1Nc1ccc(N3CCN(CC4CCN(c5ccc(N6CCC(=O)NC6=O)cc5)CC4)CC3)cc1CC2 [Example C16, 7-(4-((1-(4-(2,4-dioxotetrahydropyrimidin-1(2H)-yl)phenyl)piperidin-4-yl)methyl)piperazin-1-yl)-2-(4-(1-((4-(trifluoromethyl)pyridin-2-yl)amino)cyclopropyl)phenyl)-9,10-dihydro-4H-benzo[d]pyrazolo[1,5-a][1,3]diazepine-3-carboxamide]",< 5.00
55.1,"CCC(Nc1cc(C(F)(F)F)ccn1)c1ccc(-c2nn3c(c2C(N)=O)Nc2ccc(N4CCN(CC5CCN(c6ccc(N7CCC(=O)NC7=O)cc6)CC5)CC4)cc2CC3)cc1 (centres unmarked) [Example C17, 7-(4-((1-(4-(2,4-dioxotetrahydropyrimidin-1(2H)-yl)phenyl)piperidin-4-yl)methyl)piperazin-1-yl)-2-(4-(1-((4-(trifluoromethyl)pyridin-2-yl)amino)propyl)phenyl)-9,10-dihydro-4H-benzo[d]pyrazolo[1,5-a][1,3]diazepine-3-carboxamide]",< 5.00
12.5,"COc1ccncc1C(=O)N[C@H](C)c1ccc(-c2nn3c(c2C(N)=O)Nc2ccc(N4CCN(CC5CCN(c6ccc(N7CCC(=O)NC7=O)cc6)CC5)CC4)cc2CC3)cc1 [Example C18, (R)-7-(4-((1-(4-(2,4-dioxotetrahydropyrimidin-1(2H)-yl)phenyl)piperidin-4-yl)methyl)piperazin-1-yl)-2-(4-(1-(4-methoxynicotinamido)ethyl)phenyl)-9,10-dihydro-4H-benzo[d]pyrazolo[1,5-a][1,3]diazepine-3-carboxamide]",< 5.00
0.848,"COc1ccccc1C(=O)NCc1ccc(-c2nn3c(c2C(N)=O)Nc2ccc(N4CCN(CC5CCN(c6ccc(N7CCC(=O)NC7=O)cc6)CC5)CC4)cc2CC3)cc1F [Example C19, 7-(4-((1-(4-(2,4-dioxotetrahydropyrimidin-1(2H)-yl)phenyl)piperidin-4-yl)methyl)piperazin-1-yl)-2-(3-fluoro-4-((2-methoxybenzamido)methyl)phenyl)-9,10-dihydro-4H-benzo[d]pyrazolo[1,5-a][1,3]diazepine-3-carboxamide]",6.85
0.956,"COc1ccc2ccccc2c1C(=O)NCc1ccc(-c2nn3c(c2C(N)=O)Nc2ccc(N4CCN(CC5CCN(c6ccc(N7CCC(=O)NC7=O)cc6)CC5)CC4)cc2CC3)cc1F [Example C20, 7-(4-((1-(4-(2,4-dioxotetrahydropyrimidin-1(2H)-yl)phenyl)piperidin-4-yl)methyl)piperazin-1-yl)-2-(3-fluoro-4-((2-methoxy-1-naphthamido)methyl)phenyl)-9,10-dihydro-4H-benzo[d]pyrazolo[1,5-a][1,3]diazepine-3-carboxamide]",< 5.00
0.703,"COc1ccc(C(F)(F)F)cc1C(=O)NCc1ccc(-c2nn3c(c2C(N)=O)Nc2ccc(N4CCN(CC5CCN(c6ccc(N7CCC(=O)NC7=O)cc6)CC5)CC4)cc2CC3)cc1 [Example C21, 7-(4-((1-(4-(2,4-dioxotetrahydropyrimidin-1(2H)-yl)phenyl)piperidin-4-yl)methyl)piperazin-1-yl)-2-(4-((2-methoxy-5-(trifluoromethyl)benzamido)methyl)phenyl)-9,10-dihydro-4H-benzo[d]pyrazolo[1,5-a][1,3]diazepine-3-carboxamide]",< 5.00
